Reference: US20220039395A1, “INSECT CONTROL AGENTS” (priority 2018, published 2022)
“Also recorded” adds a separate entry of the source. Square brackets hold non-standard residues; d marks the D form. Aib = CC(C)(N)C(=O)O

Tests used:
Macrosiphum rosae = test: Desiccation/starvation tolerance assay after peptide microinjection; type: in vivo; settings: Macrosiphum rosae, microinjection; for Documented effect on desiccation/starvation mortality: final concentration ×10^−5 M, relative to vehicle control; for LTime50 (h), test / Median IQR survival (h), test: ×10^−5 M, desiccation and starvation stress, test group
Procedure: (§1) Neuropeptides were administered to test aphids via microinjection to allow for rapid mass screening of neuropeptide analogue efficacy. For this, native neuropeptides were diluted in double distilled water (DDH2O) to a concentration of 1×10^−5 M. Neuropeptide analogues were diluted in DDH2O to the following concentrations: kinin analogues 1728 (2.5×10^−5 M), 2139 (3.5×10^−5 M), 2139-Ac (3.5×10^−5 M); CAP2b analogues 1895 (3.5×10^−5 M), 1896 (3.5×10^−5 M), 1902 (3.5×10^−5 M), 2089 (3.9×10^−5 M), 2123 (1.0×10^−5 M), 2125 (1.0×10^−5 M), 2129 (2.0×10^−5 M). Once at the desired concentration, neuropeptide solutions were administered to test aphids at an injection volume of 9 nl based on total haemolymph volume, to produce an approximate 1:20 dilution of injection volume to haemolymph. Injections were performed using a pulled glass needle and a Nanoject II Auto-Nanoliter Injector (Drummond Scientific Company, Broomall, Pa.). A vehicle control was set up for each treatment/day of experiments to account for variation in needle pulling. For this, control aphids were injected with 9 nl of DDH2O and subsequently exposed to the same experiments as aphids receiving the neuropeptide treatment. Neuropeptide treated and vehicle control aphids were subsequently used in the stress bioassays detailed below.
(§2) Anholocyclic adults of mixed age of either M. persicae or M. rosae were selected from the stock cultures and treated with a native neuropeptide or neuropeptide analogue via microinjection using the method detailed above. Treated and vehicle control aphids were allowed to recover on excised leaves of the host plant for 1 h before being placed in an empty ventilated microcage (L=4 cm, 0=9.5 cm) at densities of 10 per cage. In total, 30-40 aphids were treated for each neuropeptide treatment group and a further 30-40 for the associated vehicle control group. From the point of placement in the microcage (taken as 0 h), aphid survival was checked every hour during daylight hours and approximately every 4 h during night-time hours until the final aphid died. Survival data were subsequently analysed using a Log-rank (Mantel-Cox) text in GraphPad Prism version 7.0. LTime50 (the time taken to kill 50% of the test population) values were calculated via Probit Analysis in Minitab 17 (Minitab Inc., State College, Pa.).

Myzus persicae [1] = test: as above; type: in vivo; settings: Myzus persicae, microinjection; for Documented effect on desiccation/starvation mortality: final concentration ×10^−5 M, relative to vehicle control; for LTime50 (h), test / Median ± IQR survival (h), test: ×10^−5 M, desiccation and starvation stress, test group
Procedure: as §1, §2

M. persicae = test: Topical application under desiccation/starvation conditions; type: in vivo, Myzus persicae; settings: data not shown
Procedure: For peptides 2315, 2320 and 2125, peptides were diluted individually in an Armid FMPC formulation (AkzoNobel Surface Chemistry, Stenungsund, Sweden) to concentration of 1×10^−5 M. Using a Nanoject II Auto-Nanoliter micro-injector, 9 nl of the peptide solution was applied topically to the abdomen of a pre-reproductive adult aphid, coating the cuticle in the solution. Aphids were returned to the host plant and allowed to recover for 24 h before use in experiments. Control aphids were topically applied with 9 nl of the Armid FMPC formulation and, once again, allowed to recover for 24 h on the host plant before use in experiments.
as §2, with “In total, 30-40 aphids were treated for each neuropeptide treatment group and a further 30-40 for the associated vehicle control group. From the point of placement in the microcage (taken as 0 h), aphid survival was checked every hour during daylight hours and approximately every 4 h during night-time hours until the final aphid died.” left out

Myzus persicae [2] = test: Cold tolerance bioassay at the discriminating temperature after microinjection; type: in vivo; settings: M. persicae, 1 h at −9.7° C., survival assessed after 48 h, vs control
Procedure: Neuropeptides were administered to test aphids via microinjection to allow for rapid mass screening of neuropeptide analogue efficacy. For this, native neuropeptides were diluted in double distilled water (DDH2O) to a concentration of 1×10^−5 M. Neuropeptide analogues were diluted in DDH2O to the following concentrations: kinin analogues 1728 (2.5×10^−5 M), 2139 (3.5×10^−5 M), 2139-Ac (3.5×10^−5 M); CAP2b analogues 1895 (3.5×10^−5 M), 1896 (3.5×10^−5 M), 1902 (3.5×10^−5 M), 2089 (3.9×10^−5 M), 2123 (1.0×10^−5 M), 2125 (1.0×10^−5 M), 2129 (2.0×10^−5 M). […]
For this reason, and given its global pest status, only M. persicae was taken forward in cold stress assays. […] Following exposure, aphids were allowed to recover at the culture temperature in microcages containing excised leaves of the host plant and survival was assessed after 48 h. […]
Survival data were analysed using Probit analysis in MINITAB, version 17 (Minitab Inc., State College, Pa.) and the LT30 (the lethal temperature resulting in 30% mortality of a test population) was elucidated.
Pre-reproductive anholocyclic adult aphids of M. persicae were treated with neuropeptide analogues using the microinjection method detailed above. […] Following exposure, adults were allowed to recover at the culture temperature in microcages containing excised leaves of the host plant and survival was assessed after 48 h. […]

Substance	Documented effect on desiccation/starvation mortality (Macrosiphum rosae)	LTime50 (h), test (Macrosiphum rosae)	Median IQR survival (h), test (Macrosiphum rosae)	Documented effect on desiccation/starvation mortality (Myzus persicae [1])	LTime50 (h), test (Myzus persicae [1])	Median ± IQR survival (h), test (Myzus persicae [1])	effect on mortality (M. persicae)	Effect on survival/mortality under cold stress (Myzus persicae [2])
2Abf-Suc-FT[Oic]RV-NH2 [compound 2125]	non-significant survival curves; also recorded: No effect	21.6 | 20.1 h	24.0 ± 9.25 | 20.5 ± 18.0 h	non-significant survival curves; also recorded: No effect	10.8 | 13.0 h	11.0 ± 12.0 | 11.0 ± 12.0 h	significantly increased mortality	
Ac-FF[Aib]WG-NH2 [2139-AC, reference compound]	No effect	44.0 | 40.1 h	39.0 ± 37.0 | 35.0 ± 32.0 h	No effect	19.4 | 16.7 h	22.5 ± 19.8 | 20.0 ± 14.0 h		acting to increase survival relative to the control
